Results taken from ChEMBL document CHEMBL5375954, “Discovery and Evaluation of C6-Substituted Pyrazolopyrimidine-Based Bisphosphonate Inhibitors of the Human Geranylgeranyl Pyrophosphate Synthase and Evaluation of Their Antitumor Efficacy in Multiple Myeloma, Pancreatic Ductal Adenocarcinoma, and Colorectal Cancer” (J Med Chem, 2023).
The source made the active and inactive calls. The calls are words filed in the database; no cut-off is given here.

How the values were obtained:
[1] = biological target: T1, Farnesyl pyrophosphate synthase (Homo sapiens) (UniProt P14324); experiment: Inhibition of N-terminally His6-tagged recombinant human FPPS expressed in Escherichia coli BL21(DE3) cells using […] and [14C]IPP as substrate at 10 uM preincubated for 10 mins followed by substrate addition by scintillation counting analysis relative to control
T1 sequence (whole entry): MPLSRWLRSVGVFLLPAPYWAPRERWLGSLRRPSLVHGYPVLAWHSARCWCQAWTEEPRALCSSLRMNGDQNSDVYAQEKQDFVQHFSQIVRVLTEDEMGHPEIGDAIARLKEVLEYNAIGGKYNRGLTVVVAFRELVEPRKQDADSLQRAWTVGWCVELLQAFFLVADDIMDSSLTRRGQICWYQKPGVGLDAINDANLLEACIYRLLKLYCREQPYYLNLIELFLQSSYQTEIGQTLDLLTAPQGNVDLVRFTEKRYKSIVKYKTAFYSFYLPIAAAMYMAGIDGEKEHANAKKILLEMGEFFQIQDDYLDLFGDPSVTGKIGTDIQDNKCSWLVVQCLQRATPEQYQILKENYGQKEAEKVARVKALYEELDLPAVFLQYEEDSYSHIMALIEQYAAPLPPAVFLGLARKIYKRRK

[2] = Cytotoxicity against Normal human bronchial epithelial cells assessed as inhibition of cell growth at 10 uM incubated for 72 hrs by MTS assay relative to control; assay type: toxicity, cell-based
[3] = Cytotoxicity against human IMR-90 cells assessed as inhibition of cell growth at 10 uM incubated for 72 hrs by MTS assay relative to control; assay type: toxicity, cell-based
[4] = species: Mus musculus; experiment: Cytotoxicity against KPC mouse pancreatic cancer organoid ccmT4 at 1 uM incubated for 72 hrs by CellTiter-Glo luminescence based analysis; assay type: functional, tissue-based
[5] = Cytotoxicity against wild type mouse normal ductal organoid [N(10128)] at 1 uM incubated for 72 hrs by CellTiter-Glo luminescence based analysis; assay type: toxicity, tissue-based
[6] = test system: MIA PaCa-2; experiment: Induction of apoptosis in human MIA PaCa-2 cells assessed as late apoptotic cells at 1 uM incubated for 72 hrs by APC-Annexin-V/7-AAD staining based flow cytometry (reference value: 0.29%); assay type: functional
[7] = test system: HCT-116; experiment: Induction of apoptosis in human HCT-116 cells assessed as live cells at 1 uM incubated for 72 hrs by APC-Annexin-V/7-AAD staining based flow cytometry (reference value: 95.3%); assay type: functional
[8] = biological target: T2, Ras-related protein Rap-1A (Homo sapiens) (UniProt P62834); experiment: Inhibition of RAP-1A prenylation in human HCT-116 cells incubated for 48 hrs by Western blot analysis; assay type: cell-based; conditions: dose 10-1000 nM
T2 sequence (whole entry): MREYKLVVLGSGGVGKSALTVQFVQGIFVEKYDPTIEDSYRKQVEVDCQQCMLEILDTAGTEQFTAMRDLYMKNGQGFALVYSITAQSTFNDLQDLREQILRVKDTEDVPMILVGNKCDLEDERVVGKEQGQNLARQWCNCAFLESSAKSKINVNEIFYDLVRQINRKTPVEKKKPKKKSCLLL

[9] = test system: KMS-28PE; experiment: Antiproliferative activity against human KMS-28-PE cells harboring KRAS G12A mutant at 0.1 to 10000 nM incubated for 72 hrs by MTS assay; assay type: functional, cell-based; conditions: dose 0.1-10000 nM
[10] = biological target: Cytochrome P450 3A4 (Homo sapiens, UniProt P08684); experiment: Inhibition of CYP3A4 (unknown origin); assay type: ADME
Sequence of Cytochrome P450 3A4 (P08684 whole entry): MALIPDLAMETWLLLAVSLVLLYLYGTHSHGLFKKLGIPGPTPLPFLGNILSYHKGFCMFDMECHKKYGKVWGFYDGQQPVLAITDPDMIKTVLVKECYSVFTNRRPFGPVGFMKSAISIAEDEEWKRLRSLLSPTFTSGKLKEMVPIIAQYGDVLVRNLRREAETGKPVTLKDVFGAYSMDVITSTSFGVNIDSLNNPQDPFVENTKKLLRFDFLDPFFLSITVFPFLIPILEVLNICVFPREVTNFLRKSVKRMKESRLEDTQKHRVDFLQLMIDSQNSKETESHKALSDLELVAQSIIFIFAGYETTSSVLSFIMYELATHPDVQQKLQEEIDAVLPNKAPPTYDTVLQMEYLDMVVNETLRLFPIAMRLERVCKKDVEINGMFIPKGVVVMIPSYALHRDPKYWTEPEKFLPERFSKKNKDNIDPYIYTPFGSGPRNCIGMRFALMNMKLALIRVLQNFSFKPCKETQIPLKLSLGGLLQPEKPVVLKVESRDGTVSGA

[11] = AUC(0 to t) in Sprague-Dawley rat at 3 mg/kg, iv measured for 24 hrs by LC-MS/MS analysis; assay type: ADME, organism-based; design: dose 3 mg/kg, time 24 hrs, route iv; conditions: in vivo
[12] = AUC(0 to infinity) in Sprague-Dawley rat at 3 mg/kg, iv measured for 24 hrs by LC-MS/MS analysis; assay type: ADME, organism-based; design: dose 3 mg/kg, time 24 hrs, route iv; conditions: in vivo
[13] = Plasma clearance in Sprague-Dawley rat at 3 mg/kg, iv measured for 24 hrs by LC-MS/MS analysis; assay type: ADME, organism-based
[14] = MRT in Sprague-Dawley rat at 3 mg/kg, iv measured for 24 hrs by LC-MS/MS analysis; assay type: ADME, organism-based; conditions: in vivo
[15] = Half life in Sprague-Dawley rat at 3 mg/kg, iv measured for 24 hrs by LC-MS/MS analysis; assay type: ADME, organism-based; conditions: in vivo
[16] = Toxicity in NSG mouse xenografted with human MIA PaCa-2 cells assessed as body weight gain at 3 mg/kg, ip administered 3 times a week for 26 days and measured daily; assay type: organism-based; conditions: in vivo, time 26 day
[17] = Toxicity in NSG mouse xenografted with human MIA PaCa-2 cells assessed as weight loss at 3 mg/kg, ip administered 3 times a week for 26 days and measured daily; assay type: organism-based; conditions: in vivo, time 26 day
[18] = Toxicity in NSG mouse xenografted with human MIA PaCa-2 cells assessed as appearance of skin lesions at 3 mg/kg, ip administered 3 times a week for 26 days and measured daily; assay type: organism-based; conditions: in vivo, time 26 day
[19] = test system: MIA PaCa-2; experiment: Antitumor activity against human MIA PaCa-2 cells xenografted in NSG mouse assessed as improvement in animal survival rate at 3 mg/kg, ip administered 3 times a week for 26 days and measured 60 days post last dose; assay type: functional, organism-based; conditions: time 86.0 day
[20] = Hepatotoxicity in male NSG mouse xenografted with human RPMI-8226 cells assessed as serum ALT level at 3 mg/kg, ip administered 3 times a week for 26 days and measured 48 hrs post last dose (reference value: 35 to 40 IU/L); assay type: toxicity, organism-based; conditions: in vivo, 672 h, time 28 day
[21] = Hepatotoxicity in female NSG mouse xenografted with human RPMI-8226 cells assessed as serum ALT level at 3 mg/kg, ip administered 3 times a week for 26 days and measured 48 hrs post last dose (reference value: 30 to 98 IU/L); assay type: toxicity, organism-based; conditions: in vivo, 672 h, time 28 day
[22] = Hepatotoxicity in female NSG mouse xenografted with human RPMI-8226 cells assessed as serum AST level at 3 mg/kg, ip administered 3 times a week for 26 days and measured 48 hrs post last dose (reference value: 84 to 229 IU/L); assay type: toxicity, organism-based; conditions: in vivo, 672 h, time 28 day
[23] = Hepatotoxicity in female NSG mouse xenografted with human RPMI-8226 cells assessed as single-cell necrosis at 3 mg/kg, ip administered 3 times a week for 26 days and measured 48 hrs post last dose by H and E staining based assay; assay type: toxicity, organism-based; conditions: in vivo, 672 h, time 28 day
[24] = Hepatotoxicity in female NSG mouse xenografted with human RPMI-8226 cells assessed as foci of necrosis at 3 mg/kg, ip administered 3 times a week for 26 days and measured 48 hrs post last dose by H and E staining based assay; assay type: toxicity, organism-based; conditions: in vivo, 672 h, time 28 day
[25] = Hepatotoxicity in male NSG mouse xenografted with human RPMI-8226 cells assessed as inflammatory infiltrates at 3 mg/kg, ip administered 3 times a week for 26 days and measured 48 hrs post last dose by H and E staining based assay; assay type: toxicity, organism-based; conditions: in vivo, 672 h, time 28 day
[26] = Hepatotoxicity in female NSG mouse xenografted with human RPMI-8226 cells assessed as inflammatory infiltrates at 3 mg/kg, ip administered 3 times a week for 26 days and measured 48 hrs post last dose by H and E staining based assay; assay type: toxicity, organism-based; conditions: in vivo, 672 h, time 28 day
[27] = test system: RPMI-8226; experiment: Induction of ER stress in human RPMI-8226 cells at 1 uM; assay type: functional, cell-based
[28] = test system: MIA PaCa-2; experiment: cells; conditions: Homo sapiens, MIA PaCa-2, 72 h
[29] = test system: HCT-116; experiment: cells; conditions: Homo sapiens, HCT-116, 72 h

## Cn1ncc2c(NC(P(=O)(O)O)P(=O)(O)O)nc(-c3cccc(C(=O)Nc4ccc(C(F)(F)F)cc4)c3)nc21
[1]
  inhibition: < 10%
[2]
  inhibition at 72 h, 10 µM: 0%
[3]
  inhibition at 72 h, 10 µM: ~20%
[4]
  Activity: Active
[5]
  Activity: Non-Toxic
[6]
  Activity: 41%
[7]
  Activity: 56.6%
[8]
  inhibition: Dose-Dependent Effect
[9]
  Activity: Active
[10]
  IC50: > 40000 nM
[11]
  AUC(0-t) at 24 h: 254 µg·h/mL
[12]
  AUC(0-inf): 156 µg·h/mL
[13]
  clearance: 0.2 mL/min/kg
[14]
  MRT: 4.68 h
[15]
  half-life: 3.84 h
[16]
  Activity: Toxic
[17]
  Activity: Non-Toxic
[18]
  Activity: Non-Toxic
[19]
  Activity: Active
[20]
  Activity: 42 IU/L
[21]
  Activity: 59 IU/L
[22]
  Activity: 199 IU/L
[23]
  Activity: Non-Toxic
[24]
  Activity: Non-Toxic
[25]
  Activity: Non-Toxic
[26]
  Activity: Non-Toxic
[27]
  Activity: Active
[28]
  EC50: 790 nM
[29]
  EC50: 580 nM
